Experimental data: US20250296971A1, “GASTRIC INHIBITORY PEPTIDE RECEPTOR LIGANDS” (priority 2021, published 2025)
*1 amine or outer side, *2 acyl side, *3 side chain or, on linkers, in order; H or OH if unused. Where a SMILES comes first, the peptide text is derived from it. Bridges are numbered along the chain shown (N, C = ends). [ ]: non-standard residue; d: D form. Pyridine(2,6-diCH2) = c1cc(C[*:1])nc(C[*:2])c1; Nip(3R) = O=C([C@@H]1CCCN([*:1])C1)[*:2]; Phe(4-Cl) = N[C@@H](Cc1ccc(Cl)cc1)C(=O)O; Phe(2-Cl) = N[C@@H](Cc1ccccc1Cl)C(=O)O; Pro(4,4-F2) = O=C(O)[C@@H]1CC(F)(F)CN1; 1Nal = N[C@@H](Cc1cccc2ccccc12)C(=O)O; mXylylene = c1cc(C[*:1])cc(C[*:2])c1; Hyp = O=C(O)[C@@H]1C[C@@H](O)CN1; 2Thi = N[C@@H](Cc1cccs1)C(=O)O; Cit = NC(=O)NCCC[C@H](N)C(=O)O; Pen = CC(C)(S)[C@H](N)C(=O)O; Nle = CCCC[C@H](N)C(=O)O; Thp = NC1(C(=O)O)CCOCC1; Dap = NC[C@H](N)C(=O)O; Aib = CC(C)(N)C(=O)O

These compounds were tested against T1, GIPR (CHO-K1-hGIPR cells) (Homo sapiens, UniProt P48546) (assay: FACS binding assay). Settings: competition with 20 nM GIP-057, 4° C. for 1 hour, read-out: pIC50 Category (converted).
T1 construct: host or cells: CHO-K1
T1 sequence (P48546 22-466): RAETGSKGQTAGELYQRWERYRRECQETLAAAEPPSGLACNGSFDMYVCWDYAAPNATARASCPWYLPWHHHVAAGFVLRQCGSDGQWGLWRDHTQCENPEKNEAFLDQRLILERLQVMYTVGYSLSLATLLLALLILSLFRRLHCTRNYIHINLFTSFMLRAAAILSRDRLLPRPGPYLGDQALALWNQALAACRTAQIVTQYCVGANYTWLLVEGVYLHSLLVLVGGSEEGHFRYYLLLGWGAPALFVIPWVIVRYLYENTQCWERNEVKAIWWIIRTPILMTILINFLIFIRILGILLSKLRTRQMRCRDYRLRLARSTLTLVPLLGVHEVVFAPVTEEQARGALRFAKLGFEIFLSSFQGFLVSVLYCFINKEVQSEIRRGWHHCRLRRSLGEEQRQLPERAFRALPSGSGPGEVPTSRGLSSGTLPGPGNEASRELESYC
Outline: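 Read-out: flow cytometric median fluorescence intensity, APC/Cy5 channel, plotted vs peptide conc.; 4PL fit → EC50/pEC50 or IC50/pIC50. Cells: CHO-K1-hGIPR, Accutase-detached, 500.000/mL in PBS + 1% FCS. Detection: APC-streptavidin 1 μg/mL, 30 min, on ice.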

IC50, > 1 µM:
CC[C@H](C)[C@@H]1NC(=O)[C@H](CC(C)C)NC(=O)C(C)(C)NC(=O)[C@@H](NC(=O)[C@H](CC(C)C)NC(=O)[C@H](CCC(=O)O)NC(=O)[C@@H]2CCCN2C(=O)[C@H](Cc2c[nH]c3ccccc23)NC(=O)[C@H](Cc2c[nH]c3ccccc23)NC(=O)[C@H](CC(=O)O)NC(C)=O)CSCc2cccc(c2)CSC(C)(C)[C@@H](C(N)=O)NC1=O [GIP-339, Ac-Asp-Trp-Trp-Pro-Glu-Leu-[Cys(3MeBn)-Aib-Leu-Ile-Pen]-NH2] (Ac-DWWPELC[Aib]LI[Pen]-NH2; linker 7-11 via mXylylene)
CC[C@H](C)[C@@H]1NC(=O)[C@H](CC(C)C)NC(=O)C(C)(C)NC(=O)[C@@H](NC(=O)[C@H](CC(N)=O)NC(=O)[C@H](CCC(=O)O)NC(=O)[C@@H]2CCCN2C(=O)[C@H](Cc2cccc3ccccc23)NC(=O)[C@H](Cc2c[nH]c3ccccc23)NC(=O)[C@H](CC(=O)O)NC(C)=O)CSCc2cccc(c2)CSC[C@@H](C(N)=O)NC1=O [GIP-340, Ac-Asp-Trp-1Ni-Pro-Glu-Asn-[Cys(3MeBn)-Aib-Leu-Ile-Cys]-NH2] (Ac-DW[1Nal]PENC[Aib]LIC-NH2; linker 7-11 via mXylylene)
CC[C@H](C)[C@@H]1NC(=O)[C@H](CC(C)C)NC(=O)C(C)(C)NC(=O)[C@@H](NC(=O)[C@H](CC(C)C)NC(=O)[C@H](CCC(=O)O)NC(=O)[C@@H]2CC(F)(F)CN2C(=O)[C@H](Cc2cccc3ccccc23)NC(=O)[C@H](Cc2c[nH]c3ccccc23)NC(=O)[C@H](CC(=O)O)NC(C)=O)CSCc2cccc(c2)CSC[C@@H](C(N)=O)NC1=O [GIP-341, Ac-Asp-Trp-1Ni-4Dfp-Glu-Leu-[Cys(3MeBn)-Aib-Leu-Ile-Cys]-NH2] (Ac-DW[1Nal][Pro(4,4-F2)]ELC[Aib]LIC-NH2; linker 7-11 via mXylylene)
CC[C@H](C)[C@@H]1NC(=O)[C@H](CC(C)C)NC(=O)C(C)(C)NC(=O)[C@@H](NC(=O)[C@H](CC(C)C)NC(=O)[C@H](CCC(=O)O)NC(=O)[C@@H]2CCCN(C(=O)[C@H](Cc3cccc4ccccc34)NC(=O)[C@H](Cc3c[nH]c4ccccc34)NC(=O)[C@H](CC(=O)O)NC(C)=O)C2)CSCc2cccc(c2)CSC[C@@H](C(N)=O)NC1=O [GIP-342, Ac-Asp-Trp-1Ni-Rni-Glu-Leu-[Cys(3MeBn)-Aib-Leu-Ile-Cys]-NH2] (Ac-DW[1Nal][Nip(3R)]ELC[Aib]LIC-NH2; linker 7-11 via mXylylene)
CC[C@H](C)[C@@H]1NC(=O)[C@H](CC(C)C)NC(=O)C(C)(C)NC(=O)[C@@H](NC(=O)[C@H](Cc2cccs2)NC(=O)[C@H](CCC(=O)O)NC(=O)[C@@H]2CCCN2C(=O)[C@H](Cc2cccc3ccccc23)NC(=O)[C@H](Cc2c[nH]c3ccccc23)NC(=O)[C@H](CC(=O)O)NC(C)=O)CSCc2cccc(c2)CSC[C@@H](C(N)=O)NC1=O [GIP-343, Ac-Asp-Trp-1Ni-Pro-Glu-Thi-[Cys(3MeBn)-Aib-Leu-Ile-Cys]-NH2] (Ac-DW[1Nal]PE[2Thi]C[Aib]LIC-NH2; linker 7-11 via mXylylene)
CC[C@H](C)[C@@H]1NC(=O)[C@H](CC(C)C)NC(=O)C(C)(C)NC(=O)[C@@H](NC(=O)[C@H](Cc2ccccc2)NC(=O)[C@H](CCC(=O)O)NC(=O)[C@@H]2CCCN2C(=O)[C@H](Cc2cccc3ccccc23)NC(=O)[C@H](Cc2c[nH]c3ccccc23)NC(=O)[C@H](CC(=O)O)NC(C)=O)CSCc2cccc(c2)CSC[C@@H](C(N)=O)NC1=O [GIP-344, Ac-Asp-Trp-1Ni-Pro-Glu-Phe-[Cys(3MeBn)-Aib-Leu-Ile-Cys]-NH2] (Ac-DW[1Nal]PEFC[Aib]LIC-NH2; linker 7-11 via mXylylene)
CC[C@H](C)[C@@H]1NC(=O)[C@H](CC(C)C)NC(=O)C(C)(C)NC(=O)[C@@H](NC(=O)[C@H](CCCCN)NC(=O)[C@H](CCC(=O)O)NC(=O)[C@@H]2CCCN2C(=O)[C@H](Cc2cccc3ccccc23)NC(=O)[C@H](Cc2c[nH]c3ccccc23)NC(=O)[C@H](CC(=O)O)NC(C)=O)CSCc2cccc(c2)CSC[C@@H](C(N)=O)NC1=O [GIP-345, Ac-Asp-Trp-1Ni-Pro-Glu-Lys-[Cys(3MeBn)-Aib-Leu-Ile-Cys]-NH2] (Ac-DW[1Nal]PEKC[Aib]LIC-NH2; linker 7-11 via mXylylene)
CCCC[C@H](NC(=O)[C@H](CCC(=O)O)NC(=O)[C@@H]1CCCN1C(=O)[C@H](Cc1cccc2ccccc12)NC(=O)[C@H](Cc1c[nH]c2ccccc12)NC(=O)[C@H](CC(=O)O)NC(C)=O)C(=O)N[C@H]1CSCc2cccc(c2)CSC[C@@H](C(N)=O)NC(=O)[C@H]([C@@H](C)CC)NC(=O)[C@H](CC(C)C)NC(=O)C(C)(C)NC1=O [GIP-346, Ac-Asp-Trp-1Ni-Pro-Glu-Nle-[Cys(3MeBn)-Aib-Leu-Ile-Cys]-NH2] (Ac-DW[1Nal]PE[Nle]C[Aib]LIC-NH2; linker 7-11 via mXylylene)
CC[C@H](C)[C@@H]1NC(=O)[C@H](CC(C)C)NC(=O)C(C)(C)NC(=O)[C@@H](NC(=O)[C@H](CCCNC(N)=O)NC(=O)[C@H](CCC(=O)O)NC(=O)[C@@H]2CCCN2C(=O)[C@H](Cc2cccc3ccccc23)NC(=O)[C@H](Cc2c[nH]c3ccccc23)NC(=O)[C@H](CC(=O)O)NC(C)=O)CSCc2cccc(c2)CSC[C@@H](C(N)=O)NC1=O [GIP-347, Ac-Asp-Trp-1Ni-Pro-Glu-Cit-[Cys(3MeBn)-Aib-Leu-Ile-Cys]-NH2] (Ac-DW[1Nal]PE[Cit]C[Aib]LIC-NH2; linker 7-11 via mXylylene)
CC[C@H](C)[C@@H]1NC(=O)[C@H](CC(C)C)NC(=O)C(C)(C)NC(=O)[C@@H](NC(=O)[C@H](CNC(C)=O)NC(=O)[C@H](CCC(=O)O)NC(=O)[C@@H]2CCCN2C(=O)[C@H](Cc2cccc3ccccc23)NC(=O)[C@H](Cc2c[nH]c3ccccc23)NC(=O)[C@H](CC(=O)O)NC(C)=O)CSCc2cccc(c2)CSC[C@@H](C(N)=O)NC1=O [GIP-348, Ac-Asp-Trp-1Ni-Pro-Glu-Dap(Ac)-[Cys(3MeBn)-Aib-Leu-Ile-Cys]-NH2] (Ac-DW[1Nal]PE[Dap](Ac)C[Aib]LIC-NH2; linker 7-11 via mXylylene)
CC[C@H](C)[C@@H]1NC(=O)[C@H](CC(C)C)NC(=O)C2(CCOCC2)NC(=O)[C@@H](NC(=O)[C@@H](CC(C)C)NC(=O)[C@H](CCC(=O)O)NC(=O)[C@@H]2C[C@@H](O)CN2C(=O)[C@H](Cc2ccccc2Cl)NC(=O)[C@H](Cc2c[nH]c3ccccc23)NC(=O)[C@H](CC(=O)O)NC(C)=O)CSCc2cccc(n2)CSC[C@@H](C(N)=O)NC1=O [GIP-349, Ac-Asp-Trp-Ocf-Hyp-Glu-leu-[Cys(2Lut)-Thp-Leu-Ile-Cys]-NH2] (Ac-DW[Phe(2-Cl)][Hyp]E[dL]C[Thp]LIC-NH2; linker 7-11 via Pyridine(2,6-diCH2))
CC[C@H](C)[C@@H]1NC(=O)[C@H](CC(C)C)NC(=O)C2(CCOCC2)NC(=O)[C@@H](NC(=O)[C@@H](CC(C)C)NC(=O)[C@H](CCC(=O)O)NC(=O)[C@@H]2C[C@@H](O)CN2C(=O)[C@H](Cc2ccc(Cl)cc2)NC(=O)[C@H](Cc2c[nH]c3ccccc23)NC(=O)[C@H](CC(=O)O)NC(C)=O)CSCc2cccc(n2)CSC[C@@H](C(N)=O)NC1=O [GIP-350, Ac-Asp-Trp-Pcf-Hyp-Glu-leu-[Cys(2Lut)-Thp-Leu-Ile-Cys]-NH2] (Ac-DW[Phe(4-Cl)][Hyp]E[dL]C[Thp]LIC-NH2; linker 7-11 via Pyridine(2,6-diCH2))
